Drawing on patent publication US20210253518A1, “KINASE INHIBITOR” (NISSAN CHEMICAL CORPORATION, priority 2018, published 2021), this text covers IC50 and inhibition for 5 compounds.

Like-named read-outs stand apart in the source and are kept apart here.

Common to all, as to test: Off-chip Mobility Shift Assay (MSA method), kinase inhibition
Common to all, as to format: biochemical

In one test the target is p70S6K (Homo sapiens, UniProt P23443). The conditions noted are these: for inhibition at 0.1 µM: read-out: inhibition (%) p70S6K. As for the experimental part:
(§1) For compound k-1:B-1, inhibitory activity evaluation (calculation of 50% inhibitory concentration (IC50)) was performed on 8 kinds of kinases (CGK2, LATS2, MSK1, p70S6K, PKACα, PKACβ, SGK2, SGK3). The activity was measured using the Off-chip Mobility Shift Assay (MSA method) described below. The compound was added such that the test concentration of k-1:B-1 was in 10 steps from the final concentration of 10 μM to 0.3 nM.
(§2) As an analysis method of the data, the mean signal of the control well containing all reaction components was set to 0% inhibition, the mean signal without enzyme addition was set to 100% inhibition, and the inhibition rate was calculated from the mean signal of 2 wells of each test substance test. The IC50 value was obtained by approximating a plot based on the test substance concentration and inhibition rate to a 4 parameter logistics curve by using the Excel Solver add-in and by the non-linear least squares method.
(§3) 5 μL of k-1:B-1 solution at 4-fold concentration, 5 μL of substrate/ATP/metal solution at 4-fold concentration, and 10 μL of kinase solution at 2-fold concentration, each prepared with assay buffer (20 mM HEPES, 0.01% Triton X-100, 2 mM DTT, pH 7.5), were mixed in the wells of a polypropylene 384-well plate and reacted at room temperature for 1 or 5 hr. Successively, 70 μL of Termination Buffer (QuickScout Screening Assist MSA; Carna Biosciences) was added to discontinue the reaction. Then, the substrate peptide and the phosphorylated peptide in the reaction solution were separated and quantified by the LabChip system (Perkin Elmer). The kinase reaction was evaluated by the resultant product ratio (P/(P+S)) calculated from the substrate peptide peak height (S) and the phosphorylated peptide peak height (P).
(§4) For compounds k-1:H-7, k-1:H-1, k-1:D-1, k-1:J-1, and k-1:B-1, inhibitory rate at 100 nM was calculated on 8 kinds of kinases (CGK2, LATS2, MSK1, p70S6K, PKACα, PKACβ, SGK2, SGK3). The activity was measured using the MSA method. As an analysis method of the data, the mean signal of the control well containing all reaction components was set to 0% inhibition, the mean signal without enzyme addition was set to 100% inhibition, and the inhibition rate was calculated from the mean signal of 2 wells of each test substance test.
as §3, with “a compound” for “k-1:B-1”

For another test, the target named is T1, SGK2 (Homo sapiens, UniProt Q9HBY8).
T1 sequence (Q9HBY8 1-367): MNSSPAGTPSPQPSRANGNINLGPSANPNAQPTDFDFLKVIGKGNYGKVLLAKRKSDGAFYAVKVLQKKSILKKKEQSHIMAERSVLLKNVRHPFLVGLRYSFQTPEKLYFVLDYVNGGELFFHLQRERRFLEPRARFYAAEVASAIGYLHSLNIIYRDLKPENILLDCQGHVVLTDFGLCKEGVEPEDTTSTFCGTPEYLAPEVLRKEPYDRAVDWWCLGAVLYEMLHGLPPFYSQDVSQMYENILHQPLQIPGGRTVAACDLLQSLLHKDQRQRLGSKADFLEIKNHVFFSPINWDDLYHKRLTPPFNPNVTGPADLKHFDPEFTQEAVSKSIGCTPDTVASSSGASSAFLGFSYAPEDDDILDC
To be noted: for inhibition at 0.1 µM: read-out: inhibition (%) SGK2. How it is done: as §1, §2, §3, §4
as §3, with “a compound” for “k-1:B-1”

In the next test the target is T2, SGK3 (Homo sapiens, UniProt Q96BR1).
T2 sequence (Q96BR1 1-496): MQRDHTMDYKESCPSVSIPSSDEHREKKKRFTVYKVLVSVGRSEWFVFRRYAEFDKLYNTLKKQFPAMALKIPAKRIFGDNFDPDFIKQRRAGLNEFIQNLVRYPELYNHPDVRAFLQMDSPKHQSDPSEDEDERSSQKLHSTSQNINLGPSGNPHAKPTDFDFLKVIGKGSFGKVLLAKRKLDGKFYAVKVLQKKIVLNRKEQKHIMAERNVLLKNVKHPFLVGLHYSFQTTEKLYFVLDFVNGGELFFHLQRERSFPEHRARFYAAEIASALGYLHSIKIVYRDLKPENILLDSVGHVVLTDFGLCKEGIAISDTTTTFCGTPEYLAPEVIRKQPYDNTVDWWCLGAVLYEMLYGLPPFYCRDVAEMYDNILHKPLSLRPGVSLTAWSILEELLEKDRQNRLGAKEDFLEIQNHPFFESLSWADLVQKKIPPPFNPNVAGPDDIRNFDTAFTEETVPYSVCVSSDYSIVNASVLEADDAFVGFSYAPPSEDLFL
The conditions noted are these: for inhibition at 0.1 µM: read-out: inhibition (%) SGK3. As for the experimental part: as §1, §2, §3, §4
as §3, with “a compound” for “k-1:B-1”

The target of another test is T3, CGK2 (Homo sapiens, UniProt Q13237).
T3 sequence (Q13237 1-762): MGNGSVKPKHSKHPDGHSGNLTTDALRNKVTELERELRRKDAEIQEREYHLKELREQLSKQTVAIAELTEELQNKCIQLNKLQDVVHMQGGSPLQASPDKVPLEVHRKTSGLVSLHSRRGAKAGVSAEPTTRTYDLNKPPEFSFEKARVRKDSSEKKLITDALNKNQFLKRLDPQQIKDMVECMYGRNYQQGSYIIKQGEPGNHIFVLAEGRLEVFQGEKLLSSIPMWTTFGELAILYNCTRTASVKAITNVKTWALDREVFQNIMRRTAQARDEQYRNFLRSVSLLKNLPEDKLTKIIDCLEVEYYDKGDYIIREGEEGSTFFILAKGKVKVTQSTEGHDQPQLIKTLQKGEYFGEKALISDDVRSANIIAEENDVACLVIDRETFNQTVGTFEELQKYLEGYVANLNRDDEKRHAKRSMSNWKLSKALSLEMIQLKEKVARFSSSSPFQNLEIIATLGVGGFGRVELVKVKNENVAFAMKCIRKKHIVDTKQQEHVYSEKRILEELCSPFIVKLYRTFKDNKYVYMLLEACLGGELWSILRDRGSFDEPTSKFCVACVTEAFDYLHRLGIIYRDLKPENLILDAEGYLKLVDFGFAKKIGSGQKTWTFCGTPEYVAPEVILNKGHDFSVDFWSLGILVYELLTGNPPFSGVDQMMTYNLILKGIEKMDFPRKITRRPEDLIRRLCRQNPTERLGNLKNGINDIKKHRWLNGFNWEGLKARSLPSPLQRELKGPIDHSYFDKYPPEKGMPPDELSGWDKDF
The conditions noted are these: for inhibition at 0.1 µM: read-out: inhibition (%) CGK2. How it is done: as §1, §2, §3, §4
as §3, with “a compound” for “k-1:B-1”

[1] abbreviates: MSA method, 10 steps from 10 μM to 0.3 nM.

Chain of p70S6K (P23443 whole entry): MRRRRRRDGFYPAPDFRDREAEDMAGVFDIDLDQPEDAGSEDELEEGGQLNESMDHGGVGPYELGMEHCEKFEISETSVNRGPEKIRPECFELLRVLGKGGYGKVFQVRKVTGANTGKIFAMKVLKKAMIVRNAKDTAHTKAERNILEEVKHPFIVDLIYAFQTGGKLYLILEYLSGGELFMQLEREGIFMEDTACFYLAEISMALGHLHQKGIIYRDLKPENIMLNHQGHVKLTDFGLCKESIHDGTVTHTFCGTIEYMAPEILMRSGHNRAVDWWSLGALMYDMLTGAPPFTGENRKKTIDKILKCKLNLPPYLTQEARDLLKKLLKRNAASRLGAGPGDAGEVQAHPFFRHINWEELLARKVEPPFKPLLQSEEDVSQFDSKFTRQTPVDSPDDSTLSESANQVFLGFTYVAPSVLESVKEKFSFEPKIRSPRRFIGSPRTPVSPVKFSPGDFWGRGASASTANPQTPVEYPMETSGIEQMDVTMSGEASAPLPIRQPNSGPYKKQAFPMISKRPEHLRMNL

`CC/C(=N\NC(=O)C(C)Nc1ccccc1)c1ccc(O)c(C)c1O` (stereo not drawn) [k-1:B-1]: the IC50 was 0.0415 µM on p70S6K (setting [1]), 0.0132 µM at SGK2 (setting [1]), 0.0633 µM at SGK3 (setting [1]) and 0.0299 µM on CGK2 (setting [1]). For the same compound, the inhibition at 0.1 µM at p70S6K (at 100 nM, MSA method) is 67.6%; on SGK2 (at 100 nM, MSA method), 87.3%; at SGK3 (at 100 nM, MSA method) it was 65.9%; on CGK2 (at 100 nM, MSA method), 83.2%.
For `CC/C(=N\NC(=O)CNc1cccc(O)c1)c1ccc(O)c(C)c1O` [k-1:D-1], the inhibition at 0.1 µM at p70S6K is 97.9%; at SGK2, 99.9%; at SGK3, 93.6%; at CGK2, 97.2%.
Regarding `CCC(=NNC(=O)CNc1ccccc1)c1ccc(O)c(C)c1O` [k-1:H-1], the inhibition at 0.1 µM came to 82% at p70S6K (at 100 nM, MSA method); 93.6% at SGK2 (at 100 nM, MSA method); 73.7% on SGK3 (at 100 nM, MSA method); 77.6% on CGK2 (at 100 nM, MSA method).
On the same counts, the results for `CCC(=NNC(=O)C(CC)Nc1ccccc1)c1ccc(O)c(C)c1O` (stereo not drawn) [k-1:H-7] are 70.3%, 84.3%, 44.4% and 80.8%.
For `CC/C(=N\NC(=O)NCc1cccc(O)c1)c1ccc(O)c(C)c1O` [k-1:J-1], the inhibition at 0.1 µM at p70S6K came to 78.3%; at SGK2, 95.1%; on SGK3, 82.5%; on CGK2, 51.3%.
